The values below come from patent publication US11591288B2, “Compositions and methods for treating atherosclerotic cardiovascular disease” (GAVISH-GALILEE BIO APPLICATIONS LTD., priority 2017, dated 2023).

Some results are limits rather than exact numbers.

In assay [1] the test system is Human umbilical vein endothelial cells (HUVECs). In words: HDL-induced endothelial NO release, DAN assay. It counts as cell-based. The settings on record: HDL 50 μg/ml preincubated 3 h with 10, 20, 50 μg/ml; HUVECs 2 h. Here is the method: HUVECs were stimulated for 2 h with HDL (50 μg/ml) preincubated with DMSO, lyso-DGTS and S1P at final concentrations of 10, 20, and 50 μg/ml for 3 h. Media were then collected and treated with nitrate reductase followed by analysis using the DAN assay. Data are expressed as NO concentration (μM) released by the cells. Each experiment was repeated separately at least three times. *p<0.05, ***p<0.0001 related to the control (HDL without lyso-DGTS or S1P). Statistics were analyzed using one-way annova Graphpad prism 5 software.
Human umbilical vein endothelial cells (HUVECs) were incubated for 2 hours with HDL preincubated with different concentration of lyso-DGTS or S1P for 3 hours, and NO production determined using 2,3-diaminonapthalene (DAN) assay.

For another assay, the system named is rePON1. In words: rePON1-lyso-DGTS interaction, Trp fluorescence quenching. It is filed as binding. On the procedure:
To 200 μl rePON1 (50 μg/ml=1.16 μM) solution in black 96-well plate wells was added lyso-DGTS at various concentration (0, 1, 5, 10, 25, 50, 75, and 100 μg/ml). The solutions were incubated for 2 h at 25° C. or 37° C. Fluorescence measurements were performed with an Infinite M200 PRO fluorescence spectrophotometer (Tecan) with emission spectra recorded from 320 to 450 nm at an excitation wavelength of 290 nm.
The effect of lyso-DGTS on rePON1 can result from a specific interaction between the lipid and the enzyme which was studied using Trp fluorescence quenching method. […] (FIG. 3A) and 37° C. (FIG. 3B) in the 300-450 nm range with an excitation wavelength of 290 nm. Lyso-DGTS quenched the fluorescence of rePON1 in a dose dependent manner at both temperatures.
Quenching pathways can be described by the Stern-Volmer equation (eq. 1):
[formula] where F0 and F are the fluorescence intensities in the absence and presence of quencher (lyso-DGTS), respectively, Ksv is the Stern-Volmer quenching constant, and [Q] is the quencher concentration (M).
The binding constant and binding sites were calculated using (eq. 2):
[formula] where Ka is the binding constant, reflecting the degree of interaction between rePON1 and lyso-DGTS, and n is the number of binding sites specifying the number of lyso-DGTS molecules bound to a rePON1. […] (2.377×10^3 M^−1; FIG. 4C). The values obtained for n were not affected by the temperature and were equal to ˜1 (Table 4). The thermodynamic parameters: enthalpy (ΔH), entropy (ΔS), and free energy (ΔG) were calculated to characterize the type of rePON1-lyso-DGTS interaction.

Assay [2] is described as follows: Clinical parameters of the in-vivo experiment (HFD fed Balb/c mice). Also noted: unit not given here. Particulars: lyso-DGTS via s.c. osmotic mini-pump, 28 days; for Glucose: p < 0.05 related to vehicle group. On the procedure:
(§1) Eight weeks old Balb/c mice where fed with normal rodent diet (the “non” group n=11) for 12 weeks or with high-fat diet (HFD) for 8 weeks. After 8 weeks, the HFD group was divided into two groups both treated via osmotic mini-pumps implanted subcutaneously: (1) vehicle group (the pumps contained 100 μl of DDW+2% Tween 80; n=9); (2) Lyso-DGTS group (the pumps contained 100 μl lyso-DGTS 1.4 mg/ml in DDW+2% Tween 80; n=1). The mice then continued with the same diet for another 4 weeks. The pumps injected 3.5 μl solution each day for 28 days until the end of the experiment. Blood was drawn and centrifuged at 2000 rpm for five minutes, and the serum was stored at −70° C. until the analyses. Clinical parameters were measured. Serum diluted by 20 with PBS and PON1 lactonase activity was measured using dihydrocumarine assay.
The effect of lyso-DGTS on lactonase PON1 activity was examined using Balb/c mice fed with HFD. Three groups of Balb/c mice were used: 1) the “non” group […] mice which was fed with normal rodent diet for 12 weeks; 2) the “vehicle” group n=9 mice which was fed with HFD for 8 weeks and then continued with the same diet for another 4 weeks with the injection of DDW+2% Tween via osmotic mini-pumps implanted subcutaneously; and 3) the lyso-DGTS group n=1 mice which was fed similar to the vehicle group and injected with lyso-DGTS at 1.43 mg/ml in DDW+2% Tween 80 (FIG. 14). At the end of the protocol, blood was withdrawn and clinical parameters and lactonase PON1 activity were measured. […] Lactonase PON1 activity of the mice serum was measured using dehydrocumarine assay.

The next assay has as its target T1, serum PON1 (Mus musculus, UniProt P52430).
T1 construct: from tissue; host or cells: serum of Balb/c mice
The assay can be described thus: Serum PON1 lactonase activity of Balb/c mice fed with high fat diet. The settings on record: HFD mice, lyso-DGTS 1.43 mg/ml via s.c. osmotic mini-pump, 28 days; vs vehicle. It counts as in vivo. Here is the method: as §1
The effect of lyso-DGTS on lactonase PON1 activity was examined using Balb/c mice fed with HFD. […] At the end of the protocol, blood was withdrawn and clinical parameters and lactonase PON1 activity were measured. […] Lactonase PON1 activity of the mice serum was measured using dehydrocumarine assay.

The subject of assay [3] is HDL isolated from Balb/c mice. The assay can be described thus: Pro-/anti-inflammatory properties of HDL isolated from HFD fed Balb/c mice, cell free assay. It counts as in vivo. The settings on record: HDL from HFD mice given lyso-DGTS 1.43 mg/ml, 3.5 μl a day, 28 days; fluorescence without HDL = 1.0; p<0.05. On the procedure: Balb/c mice fed with normal rodent diet (the “non” group; n=11) or HFD received treatment administered via subcutaneously implanted osmotic mini-pumps: 1) vehicle group injected with DDW+2% Tween 80 (n=9); 2) lyso-DGTS group injected with lyso-DGTS (1.43 mg/ml in DDW+2% Tween 80; n=1). At the end of the protocol, serum was obtained, HDL was isolated, and its pro-inflammatory/anti-inflammatory properties were determined using cell free assay (CFA). Fluorescence in the absence of HDL was normalized to 1.0. Values>1.0, after addition of the tested HDL, indicated pro-inflammatory activity; and values<1.0 indicated anti-inflammatory activity. (*p<0.05).
In order to examine the effect of lyso-DGTS on HDL-anti-inflammatory effects in-vivo, 3.5 μl lyso-DGTS a day were administered for 28 days, via a subcutaneously implanted osmotic mini-pump, to HFD fed mice. As described in Example 12, the mice were divided into three groups: 1) mice fed with regular diet for 12 weeks (the “non” group; […]); 2) mice fed with HFD for 12 weeks and injected with lyso-DGTS (1.43 mg/ml in DDW+2% Tween) from week 9 (the lyso-DGTS group; n=1); and 3) mice fed with HFD for 12 weeks and injected with DDW+2% Tween (the vehicle group; n=9).

T1 sequence (P52430 whole entry): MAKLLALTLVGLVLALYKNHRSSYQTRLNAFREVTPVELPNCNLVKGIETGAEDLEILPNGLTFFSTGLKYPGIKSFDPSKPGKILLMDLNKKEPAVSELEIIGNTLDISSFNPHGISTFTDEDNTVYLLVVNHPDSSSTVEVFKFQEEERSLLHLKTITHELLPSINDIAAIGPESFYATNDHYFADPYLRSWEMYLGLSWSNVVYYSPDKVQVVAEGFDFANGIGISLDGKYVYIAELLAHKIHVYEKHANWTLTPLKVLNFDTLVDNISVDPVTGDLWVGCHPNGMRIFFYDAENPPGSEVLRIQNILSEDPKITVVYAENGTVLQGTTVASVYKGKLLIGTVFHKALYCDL

`CC/C=C\C/C=C\C/C=C\C/C=C\C/C=C\CCCC(=O)OCC(O)COCCC(C(=O)[O-])[N+](C)(C)C` (stereo not drawn) [lyso-DGTS, lyso-diacylglyceryltrimethylhornmoserine]: the “effect on HDL ability to induce endothelial NO release” value in assay [1] is recorded as “significantly increased the HDL ability to induce endothelial NO release at a dose dependent manner”. Further, the “Stern-Volmer quenching constant Ksv, rePON1” value with rePON1 (25° C.) is “(1.18±0.13)×10^+4 M^−1”; in the assay with rePON1 (37° C.), “(0.93±0.03)×10^+4 M^−1”. For the same molecule, the “Binding constant Ka, lyso-DGTS-rePON1” value in the assay on rePON1 (298 K (25° C.)) was 10520 M⁻¹; in the assay on rePON1 (310 K (37° C.)), 2377 M⁻¹. The same molecule had a Cholesterol in assay [2] of 4.03 ± 0.40. In addition, in assay [2], the HDL was determined as 4.37 ± 0.42. This molecule gave a Triglycerides in assay [2] of 0.84 ± 0.26. Moreover, the Glucose was 5.99±1.4 in assay [2] and 5.99 ± 1.4 in assay [2] (listed as Lyso-DGTS). The “increase of serum lactonase PON1 activity” value on serum PON1 is recorded as roughly 2.3 units. This molecule returned an HDL inflammatory value in assay [3] of less than 1.
